The subject of one assay is PRRSV GSWW-18 strain. In words: PRRSV transmission to co-housed pigs. Type of assay: in vivo, pig. The following applies: 25 mg/kg, from 0 dpi; two co-house animals uninfected. The method, then: Although the replication mechanism of PRRSV in blood is not fully understood, viremia is an undoubted marker of disease severity[22],[23]. […] On the second day post-infection, we administered NTZ at dosages of 10 mg/kg or 5 mg/kg and monitored the dynamics of PRRSV in the blood within 24 h (Fig. 4b). We observed that NTZ acted swiftly. […] Further experiments explored NTZ’s role in viral transmission (Fig. 4c).
Fig. 4 NTZ inhibition of PRRSV shedding and transmission. a Viral load in blood, and shedding in oronasal and anal swabs. Viral load or shedding in blood and oronasal swabs were quantified from 2 to 4 dpi, and in anal swabs from 2 to 5 dpi. Viral copy numbers for each pig during this period are presented. b NTZ suppression of PRRSV proliferation in blood. […] Parameters were calculated using a non-compartmental analysis (NCA). Eighteen pigs were evenly divided into three dosage groups (n = 6), each housed separately, fasted for 12 h before the experiment, and monitored by professional veterinarians for welfare and enclosure cleaning to prevent coprophagia. g Tissue distribution of NTZ’s main metabolite TIZ. Tissues were collected as per Method Pharmacokinetics and Tissue Distribution of NTZ, quantifying TIZ content at various times (n = 2). […]

Another assay relates to PRRSV (GSWW-18 strain). As to the kind of experiment: Anti-PRRSV dose-response (EC50, IFA) in PAM cells. Type of assay: cell-based, Porcine Reproductive and Respiratory Syndrome Virus. The settings on record: PAM cells.
A further assay has as its target NMRAL1 (Chlorocebus sabaeus, UniProt A0A0D9R9W0). As to the kind of experiment: NMRAL1 dimerization (western blot, in cells and purified protein). The following applies: in cells and with purified NMRAL1 protein. It is filed as biochemical. An excerpt: In these proteins, we separately purified the proteins of NSP1α, NSP12, and NMRAL1. […] We speculate that NMRAL1 may be the primary target of NTZ action. […] Previous studies have shown NMRAL1 inhibits retinoic acid-inducible gene I (RIG-I) mediated antiviral responses. NTZ has been reported to activate the RIG-I pathway and induce an increase in IFN-β[25], which our findings corroborate (Fig. 6e–j). […] Differential Scanning Fluorimetry (DSF) confirmed NTZ binding to NMRAL1 (Fig. 6n). […] Molecular dynamics (MD) simulations were conducted for a more accurate understanding of TIZ’s role within the NMRAL1 dimer. Fluctuations or reductions in root-mean-square deviation (RMSD), Rg, and hydrogen bond count data after 80 ns indicated significant changes in the NMRAL1 system (Supplementary Fig. 12 a, b, d). […] TIZ primarily interacted with A chain’s LYS41, LYS42, LYS45, and B chain’s LYS92, LYS89, LYS95, GLN93, LEU96, LYS118, and ARG103, with B chain’s LYS92 and LYS89 and A chain’s LYS41 being the hotspots with binding energies greater than −1 kcal/mol (Supplementary Fig. 13). […]
For Western blot analysis, protein samples were heated at 95 °C for 8 min and then cooled to room temperature. […] The protein signals were detected using a chemiluminescent substrate (34577, Thermo) and visualized using the Gel Doc XR+ molecular imager (Bio-Rad).

NMRAL1, sequence (A0A0D9R9W0 entry or part of it): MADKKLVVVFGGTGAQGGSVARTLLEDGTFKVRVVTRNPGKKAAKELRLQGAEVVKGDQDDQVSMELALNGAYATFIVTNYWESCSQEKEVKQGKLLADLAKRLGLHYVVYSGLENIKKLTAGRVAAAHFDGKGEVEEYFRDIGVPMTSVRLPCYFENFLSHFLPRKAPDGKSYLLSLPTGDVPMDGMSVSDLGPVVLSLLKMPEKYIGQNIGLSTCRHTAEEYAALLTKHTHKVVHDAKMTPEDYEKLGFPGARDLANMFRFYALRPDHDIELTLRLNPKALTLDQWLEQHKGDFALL

By EC50 is commonly meant the concentration that produces a half-maximal response. Regarding `CC(=O)Oc1ccccc1C(=O)Nc1ncc([N+](=O)[O-])s1` [Nitazoxanide], in the assay on PRRSV GSWW-18 strain, the “PRRSV transmission to co-housed animals” value is on record as “can help limit PRRSV transmission”. Moreover, the “IFA inhibitory effect on PRRSV” value with PRRSV (GSWW-18 strain) (GSWW-18) is recorded as “dose-dependent inhibitory effect”. The EC50 with PRRSV (GSWW-18 strain) (Porcine reproductive and respiratory syndrome virus, mean ± SEM, n = 2, unit only on axis title, read-out: EC50) was found to be 310 ± 147 nM. Moreover, the NMRAL1 dimer formation result on NMRAL1 was “increased NMRAL1 dimer formation”.

The values above are taken from paper PMC11156899, “High-throughput screening unveils nitazoxanide as a potent PRRSV inhibitor by targeting NMRAL1” (Nature Communications, 2024).
